This note sets out measurements from ChEMBL document CHEMBL3638462, “Pyridine and pyrimidine derivatives as phosphodiesterase 10 inhibitors” (2014).

Broadly, the pIC50 is −log10 of the IC50, conventionally taken in molar units. A lower pIC50 goes with a large IC50.

Structures are written as SMILES. pIC50: −log10 of the molar value. Where “and” joins values, the source holds several entries; their conditions need not be identical. Equal entries are not always repeated.

This test deals with cAMP and cAMP-inhibited cGMP 3',5'-cyclic phosphodiesterase 10A (Homo sapiens, UniProt Q9Y233). Kind of test: Enzyme Inhibition Assay: To check the inhibition profile, 5 μL of serial diluted compounds were incubated with 5 μL of diluted PDE10 enzyme (BPS Bioscience, San Diego, Calif.) or tissue homogenate in a 384-well polystyrene assay plate (Corning, Corning, N.Y.) for 30 min at room temperature. After incubation, 10 μL of diluted fluorescein labeled cAMP or cGMP substrate were added and incubated for 60 min at room temperature. The reaction was stopped by adding 60 μL of diluted binding reagents and plates were read on an Envision (Perkin Elmer, Waltham, Mass.) for time resolved fluorescence resonance energy transfer. The data were analyzed with GraphPad Prism (La Jolla, Calif.).
cAMP and cAMP-inhibited cGMP 3',5'-cyclic phosphodiesterase 10A, sequence (Q9Y233 whole entry): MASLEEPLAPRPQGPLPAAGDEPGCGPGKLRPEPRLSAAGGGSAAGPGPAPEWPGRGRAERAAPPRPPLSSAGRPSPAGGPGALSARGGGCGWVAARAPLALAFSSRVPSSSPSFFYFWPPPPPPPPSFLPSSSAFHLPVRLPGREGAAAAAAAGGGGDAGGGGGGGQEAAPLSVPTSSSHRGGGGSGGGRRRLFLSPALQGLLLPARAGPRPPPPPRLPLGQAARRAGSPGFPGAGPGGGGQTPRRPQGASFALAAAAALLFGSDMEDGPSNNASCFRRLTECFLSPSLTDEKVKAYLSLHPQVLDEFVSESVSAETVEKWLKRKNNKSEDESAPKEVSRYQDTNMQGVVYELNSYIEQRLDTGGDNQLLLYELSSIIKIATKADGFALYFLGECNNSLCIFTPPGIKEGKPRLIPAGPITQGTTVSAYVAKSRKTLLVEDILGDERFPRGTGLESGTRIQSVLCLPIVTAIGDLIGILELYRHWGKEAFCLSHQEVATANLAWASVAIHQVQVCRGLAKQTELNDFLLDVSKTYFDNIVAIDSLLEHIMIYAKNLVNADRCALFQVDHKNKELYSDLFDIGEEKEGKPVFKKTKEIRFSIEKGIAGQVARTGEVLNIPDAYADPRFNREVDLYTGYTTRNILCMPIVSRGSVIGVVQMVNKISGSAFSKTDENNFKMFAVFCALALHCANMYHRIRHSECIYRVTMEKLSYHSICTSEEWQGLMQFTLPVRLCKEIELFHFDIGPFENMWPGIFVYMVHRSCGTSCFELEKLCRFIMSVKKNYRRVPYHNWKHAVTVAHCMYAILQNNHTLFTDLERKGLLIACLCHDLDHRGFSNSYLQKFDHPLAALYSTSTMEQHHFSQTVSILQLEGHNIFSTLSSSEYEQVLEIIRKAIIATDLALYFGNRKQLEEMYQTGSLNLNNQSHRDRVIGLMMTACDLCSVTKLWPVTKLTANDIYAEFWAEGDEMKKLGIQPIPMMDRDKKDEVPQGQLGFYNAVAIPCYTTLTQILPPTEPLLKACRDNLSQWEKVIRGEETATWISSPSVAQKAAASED
For the molecule `O=C(c1ccc(Oc2ncccc2[C@@H]2CCCOCC2)cc1)c1nc2ccccc2[nH]1`, the pIC50 is 10.30.
The value for `O=C(c1ccc(Oc2ncccc2-c2cc[nH]c(=O)c2)cc1)c1nc2ccccc2[nH]1` was 8.93.
The value for `CC(=O)N1CC[C@@H](c2cccnc2Oc2ccc(C(=O)c3nc4ccccc4[nH]3)cc2)C1` was 9.28.
`C[C@]1(O)CCCC(c2cccnc2Oc2ccc(C(=O)c3nc4ccccc4[nH]3)cc2)C1` (some centres not stated) showed a pIC50 of 8.91.
`O=C(c1ccc(Oc2ncccc2Br)cc1)c1nc2ccccc2s1`: the pIC50 was 5.40.
As for `O=C(c1ccc(Oc2ncccc2C2CCS(=O)(=O)CC2)cc1)c1nc2ccccc2[nH]1`, the pIC50 was 9.20.
The value for `COc1cccnc1-c1cccnc1Oc1ccc(C(=O)c2nc3ccccc3[nH]2)cc1` was 7.77.
The molecule `O=C(c1ccc(Oc2ncccc2-c2ccnc3ccccc23)cc1)c1nc2ccccc2[nH]1` gave a pIC50 of 9.17.
The value for `O=C(c1ccc(Oc2ncccc2[C@@H]2CC[C@H](CO)C2)cc1)c1nc2ccccc2[nH]1` was 9.51; that for `O=C(c1ccc(Oc2ncccc2[C@H]2CCC[C@@H](O)C2)cc1)c1nc2ccccc2[nH]1` was 9.00; that for `c1cnc(Oc2ccc(Nc3nc4ccccc4s3)cc2)c(-c2cncnc2)c1` was 9.52.
`O=C(c1ccc(Oc2ncccc2[C@H]2CC[C@]3(CCO3)CC2)cc1)c1nc2ccccc2[nH]1` showed a pIC50 of 9.19.
Turning to `Cn1c(C(=O)c2ccc(Oc3ncccc3-c3ccnc(F)c3)cc2)nc2ccccc21`, the pIC50 is 7.99.
For `C[C@]1(O)CCC[C@H](c2cccnc2Oc2ccc(Nc3ccccn3)cc2)C1`, the pIC50 is 7.62.
For `CC(C)c1ccc(Cn2c(Nc3ccc(Oc4ncccc4C4CCOCC4)cc3)nc3ccccc32)cc1`, the pIC50 was 7.50. The pIC50 values of the last two molecules are within 0.2 log units of each other.
Regarding `Cc1cnc(Oc2ccc(C(=O)c3nc4ccccc4n3C)cc2)c(-c2ccnc(C)c2)c1`, the pIC50 was 8.94.
The value for `c1cnc(Oc2ccc(Nc3nc4ccccc4s3)cc2)c(-c2ccnc3ccccc23)c1` was 8.14.
`COc1cccc(-c2cccnc2Oc2ccc(C(=O)c3nc4ccccc4[nH]3)cc2)n1` gave a negative-log IC50 (pIC50) of 8.63.
As for `O[C@@H]1CCC[C@H](c2cccnc2Oc2ccc(Nc3nc4ccccc4s3)cc2)C1`, the pIC50 was 8.66.
In turn, `c1cnc(Oc2ccc(Nc3nc4ccccc4s3)cc2)c([C@@H]2CCCOC2)c1` showed a pIC50 of 8.60. The pIC50 values of the last two molecules are within 0.2 log units of each other.
On to `Brc1cccnc1Oc1ccc(Nc2nc3ccccc3s2)cc1`, for which the pIC50 is 6.16.
`O=C(c1ccc(Oc2ncccc2C2CCNCC2)cc1)c1nc2ccccc2[nH]1` showed a pIC50 of 8.68.
Molecule `COC[C@H](C)NC(=O)c1cccnc1Oc1ccc(C(=O)c2nc3ccccc3[nH]2)cc1` had a pIC50 of 7.89.
Regarding `Cc1ccc(CCNC(=O)c2cccnc2Oc2ccc(C(=O)c3nc4ccccc4[nH]3)cc2)cc1`, the pIC50 is 8.51.
The figure for `Cc1cnc(Oc2ccc(C(=O)c3nc4ccccc4[nH]3)cc2)c(-c2ccnc(C)c2)c1` is 8.86; for `CC(C)(C)OC(=O)N1CC=C(c2cccnc2Oc2ccc(Nc3nc4ccccc4s3)cc2)CC1` it is 7.35; for `O=C(c1ccc(Oc2ncccc2[C@H]2CC[C@](O)(C(F)(F)F)CC2)cc1)c1nc2ccccc2[nH]1` it is 7.90.
The value for `CC(=O)N1CCC(c2cccnc2Oc2ccc(C(=O)c3nc4ccccc4[nH]3)cc2)CC1` was 9.80; that for `FC(F)(F)c1cc(-c2cccnc2Oc2ccc(Nc3nc4ccccc4[nH]3)cc2)ccn1` was 7.44; that for `CSc1cncc(-c2cccnc2Oc2ccc(C(=O)c3nc4ccccc4[nH]3)cc2)c1` was 8.97.
`COc1cc(-c2cccnc2Oc2ccc(C(=O)c3nc4ccccc4[nH]3)cc2)ccn1` gave a pIC50 of 8.79. The pIC50 values of the last two molecules are within 0.2 log units of each other.
Regarding `CN1C[C@@H](c2cccnc2Oc2ccc(Nc3nc4ccccc4s3)cc2)CC1=O`, the pIC50 is 9.71.
`COc1ccnc(-c2cccnc2Oc2ccc(C(=O)c3nc4ccccc4n3C)cc2)c1`: the pIC50 was 8.75.
`COc1ccc(Cn2c(Nc3ccc(Oc4ncccc4C4CCOCC4)cc3)nc3ccccc32)cc1` showed a pIC50 of 8.77.
Consider `O=C(c1ccc(Oc2ncccc2-c2ccncc2)cc1)c1nc2ccccc2[nH]1`, for which the pIC50 was 9.59.
The value for `O=C(c1ccc(Oc2ncccc2-c2cnn(C3CC3)c2)cc1)c1nc2ccccc2[nH]1` was 7.64; that for `FC(F)(F)c1cc(-c2cccnc2Oc2ccc(Cc3nc4ccccc4[nH]3)cc2)ccn1` was 6.93.
For the molecule `N#Cc1cccc(-c2cccnc2Oc2ccc(Nc3nc4ccccc4s3)cc2)c1`, the pIC50 was 7.74.
For `O=C(c1ccc(Oc2ncccc2N2CCOCC2)cc1)c1nc2ccccc2[nH]1`, the pIC50 is 8.80.
Molecule `C1=C(c2cccnc2Oc2ccc(Nc3nc4ccccc4s3)cc2)CCCC1` gave a pIC50 of 7.14.
As for `O=C(c1ccc(Oc2ncccc2C(=O)NC2Cc3ccccc3C2)cc1)c1nc2ccccc2[nH]1`, the pIC50 is 7.25.
The molecule `O=C(c1ccc(Oc2ncccc2[C@@H]2CCOC2)cc1)c1nc2ccccc2[nH]1` showed a pIC50 of 9.04. This pIC50 lies 1.79 log units higher than the previous one.
`c1cnc(Oc2ccc(Nc3nc4ccccc4s3)cc2)c(-c2ccc3c(c2)CCO3)c1`: the pIC50 is 7.37. Against the preceding molecule, the pIC50 is 1.67 log units lower.
In the case of `O[C@H]1CC[C@@H](c2cccnc2Oc2ccc(Nc3nc4ccccc4s3)cc2)C1`, the pIC50 is 8.60. Compared with the last molecule, the pIC50 is 1.23 log units higher.
The value for `O=C(c1ccc(Oc2ncccc2Br)cc1)c1nc2ccccc2n1C1CCCCO1` (configuration not stated) was 5.79; that for `COc1cc(-c2cccnc2Oc2ccc(Nc3nc4ccccc4s3)cc2)ccn1` was 7.92.
Consider `O=C1C=C(c2cccnc2Oc2ccc(C(=O)c3nc4ccccc4[nH]3)cc2)CC1`, for which the pIC50 was 9.00.
On to `c1cnc(Oc2ccc(Nc3nc4ccccc4s3)cc2)c([C@H]2CCOC2)c1`, for which the pIC50 was 9.06.
`C[C@]1(O)CCC[C@H](c2cccnc2Oc2ccc(C(=O)c3nc4ccccc4[nH]3)cc2)C1` gave a pIC50 of 8.94.
`COc1cccc(-c2cccnc2Oc2ccc(Nc3nc4ccccc4s3)cc2)n1`: the pIC50 is 6.79.
Molecule `C[C@H](CNC(=O)c1cccnc1Oc1ccc(C(=O)c2nc3ccccc3[nH]2)cc1)c1ccccc1` had a pIC50 of 8.06. This pIC50 lies 1.27 log units higher than the previous one.
On to `c1cnc(Oc2ccc(Nc3nc4ccccc4s3)cc2)c(-c2ccc3c(c2)OCCO3)c1`, for which the pIC50 is 7.36. This pIC50 lies 0.70 log units lower than the previous one.
`O=C(c1ccc(Oc2ncccc2[C@H]2CC[C@@H](O)CC2)cc1)c1nc2ccccc2[nH]1` gave a pIC50 of 9.51.
`COc1ccncc1-c1cccnc1Oc1ccc(C(=O)c2nc3ccccc3[nH]2)cc1` had a pIC50 of 10.14.
The value for `Cn1cc(-c2cccnc2Oc2ccc(C(=O)c3nc4ccccc4[nH]3)cc2)cn1` was 8.20; that for `O=C(c1ccc(Oc2ncccc2[C@@H]2CCCO2)cc1)c1nc2ccccc2[nH]1` was 8.30 and 7.88; that for `COC1CCN(c2cccnc2Oc2ccc(Nc3nc4ccccc4s3)cc2)CC1` was 8.50.
`O=C(c1ccc(Oc2ncccc2-c2cccnc2F)cc1)c1nc2ccccc2[nH]1` showed a pIC50 of 9.79.
The molecule `COc1ccc(-c2cccnc2Oc2ccc(C(=O)c3nc4ccccc4[nH]3)cc2)nc1` gave a pIC50 of 8.06.
The figure for `O=C(c1ccc(Oc2ncccc2N2CCCCC2)cc1)c1nc2ccccc2[nH]1` is 7.88.
The value for `C[C@@H](CNC(=O)c1cccnc1Oc1ccc(C(=O)c2nc3ccccc3[nH]2)cc1)c1ccccc1` was 8.57.
As to `CC(=O)N1CC=C(c2cccnc2Oc2ccc(C(=O)c3nc4ccccc4[nH]3)cc2)CC1`, the pIC50 was 9.71.
Consider `O=C(c1ccc(Oc2ncccc2[C@@H]2CCC[C@@H](O)C2)cc1)c1nc2ccccc2[nH]1`, for which the pIC50 is 9.84 and 9.23.
Consider `O=C(c1ccc(Oc2ncccc2-c2cccnc2)cc1)c1nc2ncccc2[nH]1`, for which the pIC50 was 8.32.
The figure for `c1cncc(-c2cccnc2Oc2ccc(Nc3nc4ccccc4[nH]3)cc2)c1` is 9.75; for `O=C(c1ccc(Oc2ncccc2C(=O)N[C@H](CO)Cc2ccccc2)cc1)c1nc2ccccc2[nH]1` it is 9.08; for `COc1ncc(-c2ccnc(F)c2)c(Oc2ccc(C(=O)c3nc4ccccc4[nH]3)cc2)n1` it is 7.64.
